Test system: NEMO oligomerization (CFP-NEMO / YFP-NEMO)
Test: FRET between CFP-NEMO and YFP-NEMO in lysates of doubly transfected Nemo-/- MEF cells
Assay type: cell-based, murine
Settings: pECFP-Nemo and pEYFP-Nemo doubly transfected Nemo-/- MEF cells; 30 min incubation with IL-1β (10 ng/ml); excitation 433 nm
Method: Rat-1, M319-5b (see supplementary data), 5R fibroblast and wild type, Ikkα^−/−Ikkβ^−/− and Nemo^−/− MEF cells were grown in Dulbecco's modified Eagle's medium supplemented with 10% fetal bovine serum. For 5R cells, 20% 5R conditioned medium was added to fresh culture medium. Transfections using Fugene 6 (Roche) were performed according to the manufacturer protocol using, per well of a 6 well-plate, 2 μg of pECFP-Nemo or pEYFP-Nemo plasmid (single transfection) or 1 μg each (double transfection). For plasmid obtaining, see supplementary data. In NF-κB complementation assays 100 ng of pEF1-lacZ (marker for transfection efficiency) and Igκ-luciferase plasmids were added to the transfection mix. Cell fluorescence was controlled with an Axiovert 200 (Zeiss) inverted microscope one day after transfection.
Cells transfected with the lacZ and the Igκ-luciferase plasmids were trypsinated, pelleted and resuspended in fresh culture medium. Cell suspension was stimulated by IL-1β (BD, Biosciences, 10 ng/ml) or TNFα (BD Biosciences, 20 ng/ml) for 30 min at 37° C. […] Kinase activity in cytosolic extracts or glycerol gradient fractions was detected as described by Yamaoka, S., Courtois, G., Bessia, C., Whiteside, S. T., Weil, R., Agou, F., Kirk, H. E., Kay, R. J. and Israel, A. (1998) Complementation cloning of NEMO, a component of the IkappaB kinase (IKK) complex essential for NF-kappaB activation. […]

IL-1β: pro inflammatory cytokine (BD Biosciences) used as NF-κB pathway activating stimulus
FRET transfer efficiency between CFP and YFP: 21.7%

— US7842462B2, “Identification of substances that inhibit NEMO oligomerization” (Institut Pasteur, priority 2006, dated 2010)
